Data published in ChEMBL document CHEMBL2157890, “Targeting pancreatic cancer with a G-quadruplex ligand” (Bioorg Med Chem, 2011).
The source made the active and inactive calls. The rule behind the calls is not given here.

Key:
Mus musculus [1] = assay: Biodistribution in human MIAPaCa2 cells xenografted Swiss mouse tumor at 3 mg/kg, ip dosed three times per week measured 48 hrs after last 4 cycles of compound dosing; type: ADME, organism-based, Neoplasm, MIA PaCa-2; set-up: dose 3 mg/kg, route intraperitoneal; conditions: in vivo
Pancreas = assay: Biodistribution in human MIAPaCa2 cells xenografted Swiss mouse Pancreas at 3 mg/kg, ip dosed three times per week measured 48 hrs after last 4 cycles of compound dosing; type: ADME, organism-based, MIA PaCa-2; set-up: dose 3 mg/kg, route intraperitoneal; conditions: in vivo
Nucleic Acid [2] = assay: Stabilization of HSP90a DNA G-quadruplex assessed as change in melting temperature at 0.5 uM by FRET; type: nucleic-acid assay
Nucleic Acid [3] = assay: Stabilization of HSP90b DNA G-quadruplex assessed as change in melting temperature at 0.5 uM by FRET; type: nucleic-acid assay
Nucleic Acid [4] = assay: Stabilization of HSP90a DNA G-quadruplex assessed as change in melting temperature at 1 uM by FRET; type: nucleic-acid assay
Nucleic Acid [5] = assay: Stabilization of HSP90b DNA G-quadruplex assessed as change in melting temperature at 1 uM by FRET; type: nucleic-acid assay
Mus musculus [6] = assay: Inhibition of telomerase activity in human MIAPaCa2 cells xenografted Swiss mouse at 3 mg/kg, ip dosed for 25 days by TRAP-LIG assay relative to untreated control; type: functional; conditions: MIA PaCa-2, ip, 600 h, route intraperitoneal
Mus musculus [7] = assay: Reduction in HSP90 protein expression in human MIAPaCa2 cells xenografted Swiss mouse tumor at 3 mg/kg, ip dosed three times per week by immunoblot; type: functional, MIA PaCa-2; set-up: scale not given: the % may be the effect or the level left; conditions: route intraperitoneal
Mus musculus [8] = assay: Reduction in hTERT protein expression in human MIAPaCa2 cells xenografted Swiss mouse tumor at 3 mg/kg, ip dosed three times per week by immunoblot; type: functional, MIA PaCa-2; set-up: scale not given: the % may be the effect or the level left; conditions: route intraperitoneal
Mus musculus [9] = assay: Reduction in k-Ras protein expression in human MIAPaCa2 cells xenografted Swiss mouse tumor at 3 mg/kg, ip dosed three times per week by immunoblot; type: functional, organism-based; set-up: dose 3 mg/kg; conditions: MIA PaCa-2
Mus musculus [10] = assay: Reduction in Bcl-2 protein expression in human MIAPaCa2 cells xenografted Swiss mouse tumor at 3 mg/kg, ip dosed three times per week by immunoblot; type: functional, MIA PaCa-2; set-up: scale not given: the % may be the effect or the level left; conditions: route intraperitoneal
MIA PaCa-2 [11] = assay: Effect on PARP protein expression human MIAPaCa2 cells at 0.1 uM to 1 uM incubated for 8 hrs by Western blot; type: functional, cell-based
MIA PaCa-2 [12] = assay: Effect on gammaH2AX protein expression human MIAPaCa2 cells at 0.1 uM to 1 uM incubated for 8 hrs by Western blot; type: functional, cell-based
Mus musculus [13] = assay: Toxicity in human MIAPaCa2 cells xenografted in Swiss mouse assessed as incidence of weight loss at 3 mg/kg, ip dosed three times per week; type: organism-based, MIA PaCa-2; set-up: dose 3 mg/kg, route intraperitoneal; conditions: in vivo
[14] = Toxicity in human MIAPaCa2 cells xenografted in Swiss mouse assessed as maximum tolerated dosed intraperitoneally three times per week; type: organism-based, MIA PaCa-2; conditions: in vivo, ip
MIA PaCa-2 [15] = assay: Antitumor activity against human MIAPaCa2 cells xenografted in Swiss mouse assessed as reduction tumor volume at 3 mg/kg, ip dosed three times per week; type: functional; set-up: scale not given: the % may be the effect or the level left; conditions: route intraperitoneal

## CN1CCN(CCCNc2cc3c4c(c(NCCCN5CCN(C)CC5)cc5c4c2C(=O)N(CCCN2CCN(C)CC2)C5=O)C(=O)N(CCCN2CCN(C)CC2)C3=O)CC1
Mus musculus [1]
  Drug uptake: Active
Pancreas
  Drug uptake: Active
Nucleic Acid [2]
  ΔTm: 34.9 °C
Nucleic Acid [3]
  ΔTm: 31 °C
Nucleic Acid [4]
  ΔTm: 36.3 °C
Nucleic Acid [5]
  ΔTm: 32 °C
Mus musculus [6]
  inhibition in vivo at 3 mg/kg: 50%
Mus musculus [7]
  Activity: 30%
Mus musculus [8]
  Activity: 30%
Mus musculus [9]
  Activity: inactive
Mus musculus [10]
  Activity: 10%
MIA PaCa-2 [11]
  Activity: inactive
MIA PaCa-2 [12]
  Activity: inactive
Mus musculus [13]
  Activity: Non-toxic
[14]
  MTD: 15 mg/kg
MIA PaCa-2 [15]
  Activity: 50%
